Test results taken from ChEMBL document CHEMBL1649573, “Protein kinase G is required for intrinsic antibiotic resistance in mycobacteria” (2009).
Values after ≈ are worked out from the molar mass of the structure shown. Active and inactive are the calls of the source. No cut-off for these calls is given here.

Legend:
[1] = system: Mycolicibacterium smegmatis; assay: Antimycobacterial activity against Mycobacterium smegmatis MAR4 harboring disrupted PknGMsm gene by Etest method; format: functional
[2] = system: Mycolicibacterium smegmatis; assay: Antimycobacterial activity against Mycobacterium smegmatis MC2 155 harboring PknG K181M mutant gene by Etest method; format: functional; conditions: str. MC2 155
[3] = system: Mycolicibacterium smegmatis; assay: Antimycobacterial activity against Mycobacterium smegmatis harboring PknG Msm gene by Etest method; format: functional
[4] = system: Mycobacterium tuberculosis; assay: Antimycobacterial activity against Mycobacterium tuberculosis H37Rv at 100 mg/l after 7 days by microscopy; format: functional, organism-based
[5] = system: Mycolicibacterium smegmatis; assay: Antimycobacterial activity against Mycobacterium smegmatis MC2 155 by Etest method; format: functional; conditions: str. MC2 155
[6] = system: Mycolicibacterium smegmatis; assay: Antimycobacterial activity against PknGMsm-deficient Mycobacterium smegmatis by Etest method; format: functional
[7] = system: Mycobacterium tuberculosis; assay: Antimycobacterial activity against PknGMtb-deficient Mycobacterium tuberculosis H37Rv at 100 mg/l after 7 days by microscopy; format: functional, organism-based
[8] = system: Mycolicibacterium smegmatis; assay: Antimycobacterial activity against PknGMsm-deficient Mycobacterium smegmatis harboring PknG K181M mutant gene by Etest method; format: functional

Compound `CC[C@H]1OC(=O)[C@H](C)[C@@H](O[C@H]2C[C@@](C)(OC)[C@@H](O)[C@H](C)O2)[C@H](C)[C@@H](O[C@@H]2O[C@H](C)C[C@H](N(C)C)[C@H]2O)[C@](C)(O)C[C@@H](C)C(=O)[C@H](C)[C@@H](O)[C@]1(C)O` [ERYTHROMYCIN] has an MIC [1] of 4 µg/mL (≈ 5.45 µM), an MIC [2] of 12 µg/mL (≈ 16.4 µM) and an MIC [3] of 32 µg/mL (≈ 43.6 µM). For the same compound, the Activity [4] was “inactive”, the MIC [5] was 32 µg/mL (≈ 43.6 µM) and the MIC [6] was 3 µg/mL (≈ 4.09 µM). The Activity [7] was “Active” and the MIC [8] was 3 µg/mL (≈ 4.09 µM).

With `CC[C@@H](CO)NCCN[C@@H](CC)CO` [ETHAMBUTOL] the MIC [1] was 0.064 µg/mL (≈ 0.313 µM), the MIC [2] was 0.064 µg/mL (≈ 0.313 µM) and the MIC [3] was 0.25 µg/mL (≈ 1.22 µM). For the same compound, the MIC [5] was 0.25 µg/mL (≈ 1.22 µM) and the MIC [6] was 0.064 µg/mL (≈ 0.313 µM).

Compound `C[C@@H](O)[C@H]1C(=O)N2C(C(=O)O)=C(SCCNC=N)C[C@H]12` [IMIPENEM ANHYDROUS] has an MIC [1] of 0.38 µg/mL (≈ 1.27 µM), an MIC [2] of 1 µg/mL (≈ 3.34 µM) and an MIC [3] of 6 µg/mL (≈ 20 µM). For the same compound, the MIC [5] was 6 µg/mL (≈ 20 µM), the MIC [6] was 0.38 µg/mL (≈ 1.27 µM) and the MIC [8] was 0.38 µg/mL (≈ 1.27 µM).

`CO[C@H]1/C=C/O[C@@]2(C)Oc3c(C)c(O)c4c(O)c(c(/C=N/N5CCN(C)CC5)c(O)c4c3C2=O)NC(=O)/C(C)=C\C=C\[C@H](C)[C@H](O)[C@@H](C)[C@@H](O)[C@@H](C)[C@H](OC(C)=O)[C@@H]1C` [RIFAMPIN] showed an MIC [1] of 4 µg/mL (≈ 4.86 µM), an MIC [2] of 4 µg/mL (≈ 4.86 µM) and an MIC [3] greater than 32 µg/mL. For the same compound, the MIC [5] was greater than 32 µg/mL and the MIC [6] was 4 µg/mL (≈ 4.86 µM).

With `CN[C@H](CC(C)C)C(=O)N[C@H]1C(=O)N[C@@H](CC(N)=O)C(=O)N[C@H]2C(=O)N[C@H]3C(=O)N[C@H](C(=O)N[C@H](C(=O)O)c4cc(O)cc(O)c4-c4cc3ccc4O)[C@H](O)c3ccc(c(Cl)c3)Oc3cc2cc(c3O[C@@H]2O[C@H](CO)[C@@H](O)[C@H](O)[C@H]2O[C@H]2C[C@](C)(N)[C@H](O)[C@H](C)O2)Oc2ccc(cc2Cl)[C@H]1O` [VANCOMYCIN] the MIC [1] was 4 µg/mL (≈ 2.76 µM), the MIC [2] was 16 µg/mL (≈ 11 µM) and the MIC [3] was 48 µg/mL (≈ 33.1 µM). The MIC [5] was 48 µg/mL (≈ 33.1 µM), the MIC [6] was 4 µg/mL (≈ 2.76 µM) and the MIC [8] was 4 µg/mL (≈ 2.76 µM).
